Reference: patent publication US8927507B2, “Selective glycosidase inhibitors and uses thereof” (priority 2011, dated 2015)

Assays:
human O-GlcNAcase = human O-GlcNAcase (Homo sapiens (Human), UniProt O60502); test: Assay for determination of Ki values for inhibition of O-GlcNAcase activity (fluorescence-based hOGA); format: biochemical; settings: purified human O-GlcNAcase 0.7 nM, 4-Methylumbelliferyl N-acetyl-β-D-glucosaminide substrate, pH 7.0, Cheng-Prusoff
Description: Experimental Procedure for Kinetic Analyses: Enzymatic reactions were carried out in a reaction containing 50 mM NaH2PO4, 100 mM NaCl and 0.1% BSA (pH 7.0) using 2 mM 4-Methylumbelliferyl N-acetyl-β-D-glucosaminide dihydrate (Sigma M2133) dissolved in ddH2O, as a substrate. The amount of purified human O-GlcNAcase enzyme used in the reaction was 0.7 nM. Test compound of varying concentrations was added to the enzyme prior to initiation of the reaction. The reaction was performed at room temperature in a 96-well plate and was initiated with the addition of substrate. The production of fluorescent product was measured every 60 sec for 45 min with a Tecan Infinite M200 plate-reader with excitation at 355 nm and emission detected at […], with 4-Methylumbelliferone (Sigma M1381) used to produce a standard curve. The slope of product production was determined for each concentration of compound tested and plotted, using standard curve fitting algorithms for sigmoidal dose response curves. The values for a four parameter logistic curve fit of the data were determined.
K1 values were determined using the Cheng-Prusoff equation; the Km of O-GlcNAcase for substrate was 0.2 mM.

O-GlcNAcase = O-GlcNAcase (Rattus norvegicus (Rat), UniProt Q8VIJ5); test: Cell-based ELISA of O-GlcNAcylated protein (RL-2 antibody) in PC-12 cells; settings: rat PC-12 cells, 24 h treatment, O-GlcNAcylated protein detected with RL-2 antibody
Sequence of O-GlcNAcase (Q8VIJ5 whole entry): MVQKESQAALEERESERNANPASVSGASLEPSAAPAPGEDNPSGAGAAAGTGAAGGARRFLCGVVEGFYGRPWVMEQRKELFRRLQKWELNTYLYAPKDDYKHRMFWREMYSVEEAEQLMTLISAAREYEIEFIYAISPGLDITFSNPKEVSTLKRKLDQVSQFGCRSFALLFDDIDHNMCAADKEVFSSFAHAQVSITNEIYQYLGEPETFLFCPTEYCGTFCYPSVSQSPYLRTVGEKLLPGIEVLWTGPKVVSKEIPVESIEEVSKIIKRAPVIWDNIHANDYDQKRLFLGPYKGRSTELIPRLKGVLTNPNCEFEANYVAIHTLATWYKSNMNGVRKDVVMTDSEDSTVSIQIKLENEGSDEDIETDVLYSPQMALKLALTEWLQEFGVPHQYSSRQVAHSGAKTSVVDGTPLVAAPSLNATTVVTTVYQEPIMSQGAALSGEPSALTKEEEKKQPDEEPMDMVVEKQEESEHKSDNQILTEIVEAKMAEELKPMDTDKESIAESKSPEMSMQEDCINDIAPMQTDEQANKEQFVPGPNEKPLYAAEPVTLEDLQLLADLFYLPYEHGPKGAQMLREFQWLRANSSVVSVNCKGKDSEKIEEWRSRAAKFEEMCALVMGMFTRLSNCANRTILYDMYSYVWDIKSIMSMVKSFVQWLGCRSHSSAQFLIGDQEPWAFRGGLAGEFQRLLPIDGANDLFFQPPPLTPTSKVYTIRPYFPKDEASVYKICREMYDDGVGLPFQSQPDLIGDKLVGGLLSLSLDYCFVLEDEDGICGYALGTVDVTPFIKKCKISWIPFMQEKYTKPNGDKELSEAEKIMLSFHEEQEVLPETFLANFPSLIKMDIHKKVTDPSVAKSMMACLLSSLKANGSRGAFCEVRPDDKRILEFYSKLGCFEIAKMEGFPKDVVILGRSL
Description: Inhibition of O-GlcNAcase, which removes O-GlcNAc from cellular proteins, results in an increase in the level of O-GlcNAcylated protein in cells. An increase in O-GlcNAcylated protein can be measured by an antibody, such as RL-2, that binds to O-GlcNAcylated protein. The amount of O-GlcNAcylated protein:RL2 antibody interaction can be measured by enzyme linked immunosorbant assay (ELISA) procedures.
A variety of tissue culture cell lines, expressing endogenous levels of O-GlcNAcase, can be utilized; examples include rat PC-12, and human U-87, or SK-N-SH cells. In this assay, rat PC-12 cells were plated in 96-well plates with approximately 10,000 cells/well. […] If desired, the total protein concentration of samples was determined using 20 μl of the sample using the BCA method.
The ELISA portion of the assay was performed in a black Maxisorp 96-well plate that was coated overnight at 4° C. with 100 μL/well of the cell lysate (1:10 dilution of the lysate with PBS containing protease inhibitors, phosphatase inhibitors, and PMSF). […] The detection reaction was incubated for 15 minutes at room temperature and then read with excitation at 530 nm and emission at 590 nm.
The amount of O-GlcNAcylated protein, as detected by the ELISA assay, was plotted for each concentration of test compound using standard curve fitting algorithms for sigmoidal dose response curves. […]

Sequence of human O-GlcNAcase (O60502 whole entry): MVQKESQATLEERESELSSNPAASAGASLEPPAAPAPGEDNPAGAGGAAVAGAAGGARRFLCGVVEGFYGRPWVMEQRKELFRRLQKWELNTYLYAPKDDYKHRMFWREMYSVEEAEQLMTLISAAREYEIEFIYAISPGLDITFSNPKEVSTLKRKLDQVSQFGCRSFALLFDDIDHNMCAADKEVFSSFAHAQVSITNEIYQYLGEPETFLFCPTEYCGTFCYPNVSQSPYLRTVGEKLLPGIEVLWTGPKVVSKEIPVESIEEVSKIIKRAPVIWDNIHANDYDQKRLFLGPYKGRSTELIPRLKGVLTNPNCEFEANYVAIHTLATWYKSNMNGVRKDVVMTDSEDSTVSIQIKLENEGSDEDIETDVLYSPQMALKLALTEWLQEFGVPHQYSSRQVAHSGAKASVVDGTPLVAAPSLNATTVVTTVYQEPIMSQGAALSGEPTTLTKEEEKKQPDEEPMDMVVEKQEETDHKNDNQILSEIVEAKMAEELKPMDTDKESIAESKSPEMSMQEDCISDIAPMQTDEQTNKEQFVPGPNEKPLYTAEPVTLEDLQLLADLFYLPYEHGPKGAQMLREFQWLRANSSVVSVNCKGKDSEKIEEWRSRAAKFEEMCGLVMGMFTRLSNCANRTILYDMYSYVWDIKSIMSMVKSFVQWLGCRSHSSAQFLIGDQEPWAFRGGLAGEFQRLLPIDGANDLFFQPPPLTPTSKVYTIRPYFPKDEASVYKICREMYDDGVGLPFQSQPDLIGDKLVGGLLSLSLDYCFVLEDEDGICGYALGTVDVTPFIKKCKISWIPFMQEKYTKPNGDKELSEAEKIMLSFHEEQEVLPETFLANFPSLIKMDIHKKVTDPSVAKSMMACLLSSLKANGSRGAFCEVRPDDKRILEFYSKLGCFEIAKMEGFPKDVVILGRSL

Compound	Ki (human O-GlcNAcase) [nM]	EC50 (O-GlcNAcase) [nM]
OC[C@H]1O[C@@H]2SC(NCCCF)=N[C@@H]2[C@@H](O)[C@@H]1O [Example 2, (3aR,5R,6S,7R,7aR)-2-((3-fluoropropyl)amino)-5-(hydroxymethyl)-5,6,7,7a-tetrahydro-3aH-pyrano[3,2-d]thiazole-6,7-diol]	15	–
OC[C@H]1O[C@@H]2SC(NCCC3CC3)=N[C@@H]2[C@@H](O)[C@@H]1O [Example 3, (3aR,5R,6S,7R,7aR)-2-(2-Cyclopropylethylamino)-5-(hydroxymethyl)-5,6,7,7a-tetrahydro-3aH-pyrano[3,2-d]thiazole-6,7-diol]	4.4	–
OC[C@H]1O[C@@H]2SC(NCC3CC3)=N[C@@H]2[C@@H](O)[C@@H]1O [Example 11, (3aR,5R,6S,7R,7aR)-2-((cyclopropylmethyl)amino)-5-(hydroxymethyl)-5,6,7,7a-tetrahydro-3aH-pyrano[3,2-d]thiazole-6,7-diol]	15	–
CCCN(C)C1=N[C@@H]2[C@@H](O)[C@H](O)[C@@H](CO)O[C@@H]2S1 [Example 15, (3aR,5R,6S,7R,7aR)-5-(hydroxymethyl)-2-(methyl(propyl)amino)-5,6,7,7a-tetrahydro-3aH-pyrano[3,2-d]thiazole-6,7-diol]	15	196
C=CCN(C)C1=N[C@@H]2[C@@H](O)[C@H](O)[C@@H](CO)O[C@@H]2S1 [Example 16, (3aR,5R,6S,7R,7aR)-2-(allyl(methyl)amino)-5-(hydroxymethyl)-5,6,7,7a-tetrahydro-3aH-pyrano[3,2-d]thiazole-6,7-diol]	2.8	152
CON(C)C1=N[C@@H]2[C@@H](O)[C@H](O)[C@@H](CO)O[C@@H]2S1 [Example 18, (3aR,5R,6S,7R,7aR)-5-(hydroxymethyl)-2-(methoxy(methyl)amino)-5,6,7,7a-tetrahydro-3aH-pyrano[3,2-d]thiazole-6,7-diol]	11	–
CCC(=O)NC1=N[C@@H]2[C@@H](O)[C@H](O)[C@@H](CO)O[C@@H]2S1 [Example 22, N-((3aR,5R,6S,7R,7aR)-6,7-dihydroxy-5-(hydroxymethyl)-5,6,7,7a-tetrahydro-3aH-pyrano[3,2-d]thiazol-2-yl)propionamide]	74	–
CCNC(=O)NC1=N[C@@H]2[C@@H](O)[C@H](O)[C@@H](CO)O[C@@H]2S1 [Example 29, 1-((3aR,5R,6S,7R,7aR)-6,7-dihydroxy-5-(hydroxymethyl)-5,6,7,7a-tetrahydro-3aH-pyrano[3,2-d]thiazol-2-yl)-3-ethylurea]	22	–
